Structures are written as SMILES. Where a name gives a salt, the structure may show the parent alone. Read-outs that look alike come from different tables or passages of the source.

One test addresses human ROCK1 (Homo sapiens, UniProt Q13464). Kind of test: ROCK1 enzymatic test (LANCE, phosphorylation of Ulight-RRRSLLE (PLK) substrate). To be noted: human recombinant enzyme, 1 μM ATP, 50 nM Ulight-RRRSLLE (PLK) substrate, 30 minutes at ambient temperature; read-out: ROCK1(h), IC50. The class given is biochemical. The protocol: Evaluation of the effects of compounds on human ROCK1 activity quantified by measuring the phosphorylation of the substrate Ulight-RRRSLLE (PLK) using a human recombinant enzyme and the LANCE® detection method.
The test compound, the reference compound or water (control) is mixed with the enzyme (8.2 ng) in a buffer comprising 40 mM Hepes/Tris (pH 7.4), 0.8 mM EGTA/Tris, 8 mM MgCl2, 1.6 mM DTT and 0.008% Tween 20.
The reaction is then started by adding 50 nM of Ulight-RRRSLLE (PLK) substrate and 1 μM of ATP, and the mixture is incubated for 30 minutes at ambient temperature. For the basal control measurements, the enzyme is excluded from the reaction mixture.
After the incubation, the reaction is stopped by adding 13 mM of EDTA. After 5 minutes, the anti-phospho-PLK antibody labelled with europium chelate is added. After a further 60 minutes, the fluorescence transfer is measured at lex=337 nm, lem=620 nm and lem=665 nm using a microplate reader (Envision, Perkin Elmer). The enzymatic activity is determined by dividing the signal measured at 665 nm by that measured at 620 nm (ratio). The results are expressed in the form of a percentage inhibition of the control enzymatic activity. The standard reference inhibition compound is staurosporine, which is tested in each experiment at several concentrations in order to obtain an inhibition curve on the basis of which the value of the IC50 (concentration that induces 50% inhibition) is calculated.

Test [1] has as its system aortic segments of the rat (contraction induced by PHE). Kind of test: Functional test (rat aorta): vascular reactivity on aortic rings without endothelium contracted with phenylephrine. Particulars: aortic rings without endothelium contracted with PHE 10^-6 M, read-out: Relaxation (rat aorta + PHE), IC50. From the text: Functional Test (Rat Aorta) Study of Vascular Reactivity on Aortic Segments of the Rat. After anaesthesia of the animal, the thoracic aorta is removed and immediately placed in a physiological saline solution (PSS). The proximal thoracic aorta is cleaned of adherent conjunctive tissue and 4 aortic rings (3-4 mm) are cut. The endothelium is removed mechanically without damaging the smooth muscle cells. The rings without endothelium are placed in PSS medium in isolated organ baths maintained at 37° C. in the presence of carbogen. The isometric tension of the rings is recorded by means of a force sensor. At their optimum tension, the rings are subjected to an equilibration period during which the physiological medium is replaced regularly. The preparations are then contracted twice by means of a hyperpotassic solution (KCl 60 mM), each of the 2 contractions being followed by successive washings in order to return to the original tension. The absence of endothelium is verified after contraction by an al-adrenergic receptor agonist, phenylephrine (PHE, 10^−6M), followed by the addition of carbachol (10^−5M), a muscarinic receptor agonist, which induces a relaxation only in the presence of endothelium. The rings are then washed regularly with PSS for 60 minutes in order to remove the pharmacological agents. The rings are recontracted with PHE (10^−6M) and then, after stabilisation of the contraction, the product or its solvent is added in cumulative concentrations, 5 concentrations are tested: 10M^−8, 10^−7M, 10^−6M, 10M^−5 and 3×10^−5M (if the product is dissolved in DMSO) or 10^−4M (if H2O is the solvent of the product). The contractile response is obtained in milligrams (mg). The results are expressed by the mean±SEM of the contractile responses obtained on at least 2 rats. The variations in tension of each product are calculated as a percentage of the maximum contraction induced by PHE before the product is added, according to the formula: % contraction B(t)=[×(mg) tension(compound)B(t)/y (mg) maximum tension (PHE)B]×100. The concentration-response curves obtained are analysed and allow the IC50 value of each product to be determined (IC50: concentration of product necessary to inhibit 50% of the maximum contraction induced by PHE), the estimation of the IC50 value of the concentration-response curves being obtained by non-linear regression.

Test [2] relates to arterial pressure of spontaneously hypertensive rats (SHR). In words: Evaluation on the arterial pressure in spontaneously hypertensive rats (SHR), telemetry. To be noted: SHR rat, maximum change of arterial pressure relative to basal. The class given is in vivo. As for the experimental part: The effect of the ROCK inhibitors was tested by the reduction of the arterial pressure (AP) that they induce in spontaneously hypertensive rats (SHR) after intravenous (i.v.) and/or oral administration. In summary, the SHRs were anaesthetised with 2% isoflurane, and a telemetry probe (PAC40, Data Science International) was implanted in the abdominal aorta to record the AP and a polyethylene catheter was implanted in the jugular vein for the i.v. administration. After recovery from the surgery (2 to 3 weeks), the AP was recorded continuously for 24 hours after administration of the ROCK inhibitors at doses of 1, 3, 10 and 30 mg/kg by the i.v. route and/or by the oral route. The effect on the AP was expressed as the percentage reduction relative to the basal arterial pressure before administration of the product.

The mark [3] stands for this setting: IV 3 mg/kg, read-out: SHR rat ΔAP % max, IV 3 mg/kg.
The mark [4] stands for this setting: PO 3 mg/kg, read-out: SHR rat ΔAP % max, PO 3 mg/kg.

human ROCK1, sequence (Q13464 whole entry): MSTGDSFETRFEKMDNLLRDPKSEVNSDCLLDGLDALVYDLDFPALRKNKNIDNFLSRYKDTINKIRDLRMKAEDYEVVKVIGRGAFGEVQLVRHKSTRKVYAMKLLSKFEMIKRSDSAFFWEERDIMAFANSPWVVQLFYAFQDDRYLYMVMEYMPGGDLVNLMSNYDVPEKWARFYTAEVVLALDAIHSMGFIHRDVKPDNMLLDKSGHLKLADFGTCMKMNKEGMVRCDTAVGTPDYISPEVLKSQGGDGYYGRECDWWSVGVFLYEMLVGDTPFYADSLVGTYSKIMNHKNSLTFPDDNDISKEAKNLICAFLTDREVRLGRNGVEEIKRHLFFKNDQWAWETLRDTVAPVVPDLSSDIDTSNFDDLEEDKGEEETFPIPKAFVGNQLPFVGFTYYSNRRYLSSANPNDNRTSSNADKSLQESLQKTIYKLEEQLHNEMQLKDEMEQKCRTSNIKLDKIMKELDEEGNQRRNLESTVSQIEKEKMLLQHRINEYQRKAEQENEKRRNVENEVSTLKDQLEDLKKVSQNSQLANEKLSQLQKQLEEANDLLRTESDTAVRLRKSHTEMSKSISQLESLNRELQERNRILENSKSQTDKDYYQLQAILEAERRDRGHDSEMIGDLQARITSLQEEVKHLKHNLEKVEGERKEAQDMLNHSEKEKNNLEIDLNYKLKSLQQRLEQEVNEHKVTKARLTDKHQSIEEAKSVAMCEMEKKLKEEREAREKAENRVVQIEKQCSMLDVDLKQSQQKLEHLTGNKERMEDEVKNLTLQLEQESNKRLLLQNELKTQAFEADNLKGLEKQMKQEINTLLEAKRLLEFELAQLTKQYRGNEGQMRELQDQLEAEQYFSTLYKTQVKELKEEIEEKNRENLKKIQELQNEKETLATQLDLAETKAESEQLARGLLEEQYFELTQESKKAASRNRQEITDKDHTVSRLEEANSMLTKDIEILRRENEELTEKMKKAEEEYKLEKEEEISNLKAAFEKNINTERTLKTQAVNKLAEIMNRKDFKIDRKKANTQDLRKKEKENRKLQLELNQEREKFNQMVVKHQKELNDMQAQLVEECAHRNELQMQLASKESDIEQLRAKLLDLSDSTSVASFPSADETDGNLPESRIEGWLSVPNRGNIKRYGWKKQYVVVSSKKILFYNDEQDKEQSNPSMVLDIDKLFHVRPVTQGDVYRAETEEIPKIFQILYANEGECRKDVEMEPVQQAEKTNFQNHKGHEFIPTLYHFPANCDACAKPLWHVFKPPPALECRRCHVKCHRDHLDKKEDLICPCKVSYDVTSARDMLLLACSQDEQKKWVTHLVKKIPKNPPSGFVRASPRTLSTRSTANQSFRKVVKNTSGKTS

A word on the IC50: it is the concentration needed to halve the response being measured. Consider `NC1CCc2c1cc(F)c(C(=O)c1cccc3c(=O)[nH]ccc13)c2F` (centres unmarked) [Product P58, 5-[(1-Amino-4,6-difluoro-2,3-dihydro-1H-inden-5-yl)carbonyl]isoquinolin-1(2H)-one hydrochloride], for which the values for the concentration for half-maximal inhibition (IC50) (at human ROCK1; in test [1]) were 0.00385 µM and 0.07 µM, respectively. In addition, the figures for the change in vivo at 3 mg/kg in test [2] (setting [3]) and in test [2] (setting [4]) were -65.1% and -52.7%, respectively.
The matching figures for `O=C(c1c(F)cc(C2CCCCN2)cc1F)c1cccc2c(=O)[nH]ccc12` (centres unmarked) [Product P75, 5-[2,6-Difluoro-4-(piperidin-2-yl)benzoyl]isoquinolin-1(2H)-one hydrochloride]: 0.0104 µM, 0.2 µM, -49.8% and -12.4%.
In the same order, the values of `CC(NCCO)c1cc(F)c(C(=O)c2cccc3c(=O)[nH]ccc23)c(F)c1` (centres unmarked) [Product P48, 5-(2,6-Difluoro-4-{1-[(2-hydroxyethyl)amino]ethyl}benzoyl)isoquinolin-1(2H)-one hydrochloride] are 0.00745 µM, 0.15 µM, -67.3% and -29.2%.
With `C[C@@H](N)c1cc(F)c(C(=O)c2cccc3cnccc23)c(F)c1` [Product P9, {4-[(1R)-1-Aminoethyl]-2,6-difluorophenyl}(isoquinolin-5-yl)methanone dihydrochloride], the 50% inhibitory concentration (IC50) was determined as 0.00587 µM on human ROCK1 and 0.033 µM in test [1]. Further, the values for the change in vivo at 3 mg/kg in test [2] (setting [3]) and in test [2] (setting [4]) were -67% and -53.7%, respectively.
For the compound `C[C@@H](N)c1ccc(F)c(C(=O)c2cccc3c(=O)[nH]ccc23)c1F` [Product P56, 5-{3-[(1R)-1-Aminoethyl]-2,6-difluorobenzoyl}isoquinolin-1(2H)-one hydrochloride], the values for the IC50 (on human ROCK1; in test [1]) were 0.0165 µM and 0.15 µM, respectively. Moreover, the change in vivo at 3 mg/kg in test [2] (setting [3]) was -54.7%.
In the same order, the values of `CC(N)c1cc(F)c(Cc2cccc3cnccc23)c(F)c1` (centres unmarked) [Product P19, 1-[3,5-Difluoro-4-(isoquinolin-5-ylmethyl)phenyl]ethanamine dihydrochloride] are 0.063 µM, 0.23 µM and -39.6%.
As to `NC(CC1CCCCC1)c1cc(F)c(C(=O)c2cccc3c(=O)[nH]ccc23)c(F)c1` (centres unmarked) [Product P129, 5-[4-(1-Amino-2-cyclohexylethyl)-2,6-difluorobenzoyl]isoquinolin-1(2H)-one hydrochloride], the half-maximal inhibitory concentration (IC50) stood at 0.0205 µM on human ROCK1 and 2 µM in test [1]. Further, the change in vivo at 3 mg/kg is -30.2% in test [2] (setting [3]) and -18.4% in test [2] (setting [4]).
In the case of `CC(C)(N)c1cc(F)c(C(=O)c2cccc3cnccc23)c(F)c1` [Product P24, [4-(2-Aminopropan-2-yl)-2,6-difluorophenyl](isoquinolin-5-yl)methanone dihydrochloride], the IC50 at human ROCK1 was 0.023 µM; in test [1], 0.01 µM. Moreover, the change in vivo at 3 mg/kg in test [2] (setting [3]) is -68.2%; in test [2] (setting [4]), -52.5%.
As for `Cc1c[nH]c(=O)c2cccc(C(=O)c3c(F)cc([C@@H](C)N)cc3F)c12` [Product P50, 5-{4-[(1R)-1-Aminoethyl]-2,6-difluorobenzoyl}-4-methylisoquinolin-1(2H)-one hydrochloride], the IC50 at human ROCK1 was found to be 0.0054 µM; in test [1] it was 0.1 µM. Moreover, the change in vivo at 3 mg/kg in test [2] (setting [3]) is -58%; in test [2] (setting [4]), -16.8%.
Consider `CC(N)c1cc(F)c(C(=O)c2cccc3cnccc23)c(F)c1` (centres unmarked) [Product P6, [4-(1-Aminoethyl)-2,6-difluorophenyl](isoquinolin-5-yl)methanone dihydrochloride], for which, in test [1], the half-inhibitory concentration (IC50) stood at 0.2 µM. The change in vivo at 3 mg/kg in test [2] (setting [3]) was -73.4%; in test [2] (setting [4]), -35.6%.
Take `COc1c(C(C)N)ccc(C(=O)c2cccc3c(=O)[nH]ccc23)c1F` (centres unmarked) [Product P42, 5-[4-(1-Aminoethyl)-2-fluoro-3-methoxybenzoyl]isoquinolin-1(2H)-one hydrochloride]: the 50% inhibitory concentration (IC50) at human ROCK1 was determined as 0.0096 µM; in test [1] it was 0.2 µM. Further, the change in vivo at 3 mg/kg in test [2] (setting [3]) was -59.9%; in test [2] (setting [4]), -12.3%.
The matching figures for `CC(N)c1cc(F)c(C(=O)c2cccc3c(O)nccc23)c(F)c1` (centres unmarked) [Product P17, [4-(1-Aminoethyl)-2,6-difluorophenyl](1-hydroxyisoquinolin-5-yl)methanone hydrochloride]: 0.0042 µM, 0.014 µM, -72.8% and -56.6%.
The matching figures for `CC(C)(N)c1cc(F)c(C(=O)c2cccc3c(=O)[nH]ccc23)c(F)c1` [Product P27, 5-[4-(2-Aminopropan-2-yl)-2,6-difluorobenzoyl]isoquinolin-1(2H)-one hydrochloride]: 0.0087 µM, 0.05 µM, -69% and -54%.
Take `C[C@@H](N)c1ccc(C(=O)c2cccc3c(=O)[nH]ccc23)c2c1OCCO2` [Product P61, 5-({8-[(1R)-1-Aminoethyl]-2,3-dihydro-1,4-benzodioxin-5-yl}carbonyl)isoquinolin-1(2H)-one hydrochloride]: the IC50 at human ROCK1 was found to be 0.00535 µM; in test [1], 0.17 µM. Further, in test [2] (setting [3]), the change in vivo at 3 mg/kg was -59%.
For the compound `N[C@@H]1CCc2cc(F)c(C(=O)c3cccc4c(=O)[nH]ccc34)c(F)c21` [Product P59, 5-{[(3R)-3-Amino-4,6-difluoro-2,3-dihydro-1H-inden-5-yl]carbonyl}isoquinolin-1(2H)-one hydrochloride], the IC50 on human ROCK1 turned out to be 0.00195 µM; in test [1] it was 0.55 µM. Besides, in test [2] (setting [3]), the change in vivo at 3 mg/kg is -40.3%.
Regarding `C[C@H](N)c1cc(F)c(C(O)c2cccc3cnccc23)c(F)c1` (single isomer, unassigned; enantiomer 1) [Product P21], the IC50 in test [1] was found to be 1 µM.
With `NCC1CCOc2c(C(=O)c3cccc4c(=O)[nH]ccc34)cccc21` (centres unmarked) [Product P139, 5-{[4-(Aminomethyl)-3,4-dihydro-2H-chromen-8-yl]carbonyl}isoquinolin-1(2H)-one hydrochloride], the IC50 was found to be 0.0875 µM at human ROCK1 and 2 µM in test [1].
For the compound `C[C@@H](N)c1ccc(C(=O)c2cccc3c(=O)[nH]ccc23)c2c1CCCO2` [Product P45, 5-({5-[(1R)-1-Aminoethyl]-3,4-dihydro-2H-chromen-8-yl}carbonyl)isoquinolin-1(2H)-one hydrochloride], the half-maximal inhibitory concentration (IC50) was 0.005 µM at human ROCK1 and 0.1 µM in test [1]. In addition, the change in vivo at 3 mg/kg in test [2] (setting [3]) was -60.6%; in test [2] (setting [4]), -24%.

The values above are taken from US9809553B2, “Isoquinoline compounds, a process for their preparation, and pharmaceutical compositions containing them” (LES LABORATOIRES SERVIER, priority 2014, dated 2017).
